Test results: ChEMBL document CHEMBL1201862, “PubChem BioAssay data set” (2004)
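Grown in 96-well plates, cells were treated for 48 hours with each compound at five concentrations. Insufficient inhibition: endpoint recorded as highest concentration tested. GI50 = concentration required for 50% inhibition of growth.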 The source made the active and inactive calls. No stated cut-off is given here; in the data, active = GI50 up to about 1.1 µM and inactive = higher.

Experiments:
Assay in all cases: NCI anticancer screen, dose series, 48 h
786-0 = system: 786-0
A498 = system: A498
A549 = system: A549
ACHN = system: ACHN
CAKI-1 = system: CAKI-1
CCRF-CEM = system: CCRF-CEM
COLO 205 = system: COLO 205
DLD-1 = system: DLD-1
DMS-114 = system: DMS-114
DMS-273 = system: DMS-273
EKVX = system: EKVX
HCC 2998 = system: HCC 2998
HCT-15 = system: HCT-15
HL-60 = system: HL-60
HOP-18 = system: HOP-18
HOP-62 = system: HOP-62
HOP-92 = system: HOP-92
HT-29 = system: HT-29
IGROV-1 = system: IGROV-1
K562 = system: K562
KM-20L2 = system: KM-20L2
KM12 = system: KM12
LOX IMVI = system: LOX IMVI
LXFL 529 = system: LXFL 529
M14 = system: M14
M19-MEL = system: M19-MEL
MOLT-4 = system: MOLT-4
Malme-3M = system: Malme-3M
NCI-H226 = system: NCI-H226
NCI-H23 = system: NCI-H23
NCI-H460 = system: NCI-H460
NCI-H522 = system: NCI-H522
OVCAR-3 = system: OVCAR-3
OVCAR-4 = system: OVCAR-4
OVCAR-5 = system: OVCAR-5
OVCAR-8 = system: OVCAR-8
RPMI-8226 = system: RPMI-8226
RXF 393 = system: RXF 393
RXF 631 = system: RXF 631
SF-268 = system: SF-268
SF-295 = system: SF-295
SF-539 = system: SF-539
SK-MEL-28 = system: SK-MEL-28
SK-MEL-2 = system: SK-MEL-2
SK-MEL-5 = system: SK-MEL-5
SK-OV-3 = system: SK-OV-3
SN12C = system: SN12C
SNB-19 = system: SNB-19
SNB-75 = system: SNB-75
SNB-78 = system: SNB-78
SR = system: SR
SW-620 = system: SW-620
TK-10 = system: TK-10
U-251 = system: U-251
UACC-257 = system: UACC-257
UACC-62 = system: UACC-62
UO-31 = system: UO-31
XF498 = system: XF498
BT-549 = system: BT-549
DU-145 = system: DU-145
HCT-116 = system: HCT-116
Hs-578T = system: Hs-578T
MCF7 = system: MCF7
MDA-MB-231 = system: MDA-MB-231
MDA-MB-435 = system: MDA-MB-435
MDA-N = system: MDA-N
NCI/ADR-RES = system: NCI/ADR-RES
PC-3 = system: PC-3
T47D = system: T47D

N#Cc1cccnc1Cl
GI50 (786-0): > 100 µM (inactive)
GI50 (A498): > 100 µM (inactive)
GI50 (A549): > 100 µM (inactive)
GI50 (ACHN): > 100 µM (inactive)
GI50 (CAKI-1): > 100 µM (inactive)
GI50 (CCRF-CEM): > 100 µM (inactive)
GI50 (COLO 205): > 100 µM (inactive)
GI50 (DLD-1): > 100 µM (inactive)
GI50 (DMS-114): > 100 µM (inactive)
GI50 (DMS-273): > 100 µM (inactive)
GI50 (EKVX): > 100 µM (inactive)
GI50 (HCC 2998): > 100 µM (inactive)
GI50 (HCT-15): > 100 µM
GI50 (HL-60): > 100 µM (inactive)
GI50 (HOP-18): > 100 µM (inactive)
GI50 (HOP-62): > 31.6 µM (inactive)
GI50 (HOP-92): > 100 µM (inactive)
GI50 (HT-29): > 100 µM (inactive)
GI50 (IGROV-1): > 100 µM (inactive)
GI50 (K562): > 100 µM (inactive)
GI50 (KM-20L2): > 100 µM (inactive)
GI50 (KM12): > 100 µM (inactive)
GI50 (LOX IMVI): > 100 µM (inactive)
GI50 (LXFL 529): > 100 µM (inactive)
GI50 (M14): > 100 µM (inactive)
GI50 (M19-MEL): > 100 µM (inactive)
GI50 (MOLT-4): > 100 µM (inactive)
GI50 (Malme-3M): > 100 µM (inactive)
GI50 (NCI-H226): > 100 µM (inactive)
GI50 (NCI-H23): > 100 µM (inactive)
GI50 (NCI-H460): > 100 µM (inactive)
GI50 (NCI-H522): > 100 µM (inactive)
GI50 (OVCAR-3): > 100 µM (inactive)
GI50 (OVCAR-4): > 100 µM (inactive)
GI50 (OVCAR-5): > 100 µM (inactive)
GI50 (OVCAR-8): > 100 µM (inactive)
GI50 (RPMI-8226): > 100 µM (inactive)
GI50 (RXF 393): > 100 µM (inactive)
GI50 (RXF 631): > 100 µM (inactive)
GI50 (SF-268): > 100 µM (inactive)
GI50 (SF-295): > 100 µM (inactive)
GI50 (SF-539): > 100 µM (inactive)
GI50 (SK-MEL-28): > 100 µM (inactive)
GI50 (SK-MEL-2): > 100 µM (inactive)
GI50 (SK-MEL-5): > 100 µM (inactive)
GI50 (SK-OV-3): > 100 µM (inactive)
GI50 (SN12C): > 100 µM (inactive)
GI50 (SNB-19): > 100 µM (inactive)
GI50 (SNB-75): > 76.6 µM (inactive)
GI50 (SNB-78): > 83.4 µM (inactive)
GI50 (SR): > 100 µM (inactive)
GI50 (SW-620): > 100 µM (inactive)
GI50 (TK-10): > 100 µM (inactive)
GI50 (U-251): > 100 µM (inactive)
GI50 (UACC-257): > 100 µM (inactive)
GI50 (UACC-62): > 100 µM (inactive)
GI50 (UO-31): > 100 µM (inactive)
GI50 (XF498): > 100 µM (inactive)

O=S1(=O)CS(=O)(=O)OCCO1
GI50 (786-0): 10.9 µM (inactive)
GI50 (A498): 52.5 µM (inactive)
GI50 (A549): 46.1 µM (inactive)
GI50 (ACHN): 15.3 µM (inactive)
GI50 (BT-549): 37.8 µM (inactive)
GI50 (CAKI-1): 38.4 µM (inactive)
GI50 (CCRF-CEM): 18.5 µM (inactive)
GI50 (COLO 205): 46.6 µM (inactive)
GI50 (DLD-1): 54.7 µM (inactive)
GI50 (DMS-114): 37.5 µM (inactive)
GI50 (DMS-273): 51.1 µM (inactive)
GI50 (DU-145): 51.1 µM (inactive)
GI50 (EKVX): 81.8 µM (inactive)
GI50 (HCC 2998): 46.6 µM (inactive)
GI50 (HCT-116): 37.7 µM (inactive)
GI50 (HCT-15): 48.6 µM
GI50 (HL-60): 11.2 µM (inactive)
GI50 (HOP-18): > 100 µM (inactive)
GI50 (HOP-62): 12.4 µM (inactive)
GI50 (HOP-92): 31.2 µM (inactive)
GI50 (HT-29): 63.1 µM (inactive)
GI50 (Hs-578T): 54.3 µM (inactive)
GI50 (IGROV-1): 33.4 µM (inactive)
GI50 (K562): 60 µM (inactive)
GI50 (KM-20L2): 76.6 µM (inactive)
GI50 (KM12): 51.4 µM (inactive)
GI50 (LOX IMVI): 16.8 µM (inactive)
GI50 (LXFL 529): > 100 µM (inactive)
GI50 (M14): 47.3 µM (inactive)
GI50 (M19-MEL): 48.8 µM (inactive)
GI50 (MCF7): 51.8 µM (inactive)
GI50 (MDA-MB-231): 128 µM (inactive)
GI50 (MDA-MB-435): 44.2 µM (inactive)
GI50 (MDA-N): 33.8 µM (inactive)
GI50 (MOLT-4): 10.4 µM (inactive)
GI50 (Malme-3M): 55.1 µM (inactive)
GI50 (NCI-H226): 41.4 µM (inactive)
GI50 (NCI-H23): 37.8 µM (inactive)
GI50 (NCI-H460): 12.9 µM (inactive)
GI50 (NCI-H522): 48.3 µM (inactive)
GI50 (NCI/ADR-RES): 50.9 µM (inactive)
GI50 (OVCAR-3): 40.3 µM (inactive)
GI50 (OVCAR-4): 52.8 µM (inactive)
GI50 (OVCAR-5): 85.5 µM (inactive)
GI50 (OVCAR-8): 55.3 µM (inactive)
GI50 (PC-3): 82 µM (inactive)
GI50 (RPMI-8226): 62.5 µM (inactive)
GI50 (RXF 393): 41.6 µM (inactive)
GI50 (RXF 631): 47.8 µM (inactive)
GI50 (SF-268): 15.1 µM (inactive)
GI50 (SF-295): 13.2 µM (inactive)
GI50 (SF-539): 11.3 µM (inactive)
GI50 (SK-MEL-28): 69 µM (inactive)
GI50 (SK-MEL-2): 50.8 µM (inactive)
GI50 (SK-MEL-5): 40.1 µM (inactive)
GI50 (SK-OV-3): 28.5 µM (inactive)
GI50 (SN12C): 66.1 µM (inactive)
GI50 (SNB-19): 31.7 µM (inactive)
GI50 (SNB-75): 14 µM (inactive)
GI50 (SNB-78): 17.4 µM (inactive)
GI50 (SR): 153 µM (inactive)
GI50 (SW-620): 40.9 µM (inactive)
GI50 (T47D): 53.1 µM (inactive)
GI50 (TK-10): 82.8 µM (inactive)
GI50 (U-251): 21.3 µM (inactive)
GI50 (UACC-257): 50.5 µM (inactive)
GI50 (UACC-62): 6.43 µM (inactive)
GI50 (UO-31): 61 µM (inactive)
GI50 (XF498): 15 µM (inactive)
